Results on three molecules are retold here after patent US20140030311A1, “MONOLITHIC INTRAVAGINAL RINGS COMPRISING PROGESTERONE AND METHODS OF MAKING AND USES THEREOF” (TEVA WOMEN'S HEALTH, INC., priority 2009, published 2014).

One assay deals with endometrium. Description: Post-study mock cycle and donor egg IVF of the two ring non-responders on other progesterone. The following applies: for outcome of post-study donor egg IVF: single subject; for biopsy result in post-study mock cycle: single subject without transformation on the ring. The assay is classed as in vivo, human. An excerpt:
There was a fibroid found in surgery post-study, which could have affected blood supply to the endometrium. […] The subject is considering one more IVF attempt with a donor egg.

In the next assay the test system is IVF cycles. Conditions: luteal phase support in IVF cycles; Soliman et al. 1994; cited from earlier work.

Take `CC(=O)[C@H]1CC[C@H]2[C@@H]3CCC4=CC(=O)CC[C@]4(C)[C@H]3CC[C@]12C` [IM progesterone, pregn-4-ene-3,20-dione]: in the assay on endometrium, the “outcome of post-study donor egg IVF” value is recorded as “ongoing pregnancy with delivery” and the “biopsy result in post-study mock cycle” value is on record as “adequate transformation”.
Turning to `CC(=O)[C@H]1CC[C@H]2[C@@H]3CCC4=CC(=O)CC[C@]4(C)[C@H]3CC[C@]12C` [micronized progesterone, pregn-4-ene-3,20-dione], in the assay with endometrium, the “outcome of post-study donor egg IVF” value was “negative βhCG” and the “biopsy result in post-study mock cycle” value is given as “adequate transformation”.
Consider `CC(=O)[C@H]1CC[C@H]2[C@@H]3CCC4=CC(=O)CC[C@]4(C)[C@H]3CC[C@]12C` [progesterone, pregn-4-ene-3,20-dione], for which the “pregnancy rates versus placebo” value in the assay with IVF cycles is “significantly higher pregnancy rates than placebo”.
